Results taken from patent publication US12269801B2, “Modified amino acids” (SUTRO BIOPHARMA, INC., priority 2012, dated 2025).

What was measured:
[1] = Reactivity of azido amino acids with DBCO analog (60), loss of DBCO absorbance at 310 nm; type: physicochemical; conditions: reaction with compound (60); for second-order rate constant: PBS buffer, 25° C., from plot of kobs vs. [Azide]; for rate constant fold higher than compound (50): relative to compound (50)
Experimental: DBCO analog (60), was dissolved in acetonitrile to a concentration of 60 μM. Amino acid analogs (30), (40), and (50) were serially diluted in PBS buffer in the wells of a 96-well microtiter plate to a volume of 180 μL. 20 μL of DBCO analog stock solution was added to each well and the kinetics of the loss of DBCO to form the addition adduct was monitored at 310 nm by absorbance using a SpectraMax plate reader at 25° C. A schematic of the reaction of compounds (30), (40), and (50) with compound (60) is shown as FIG. 1. The kinetics accurately fit a first order decay with […], where kobs is the pseudo first order rate constant with units of sec^−1 under conditions where [Azide compound]>>[DBCO]. A plot of kobs vs. [Azide] yields the second-order rate constant (units of M^−1 sec^−1) for each amino acid, a measure of the intrinsic chemical reactivity of each amino acid.

Y50TAG site in GFP = assay: Cell-free (OCFS) incorporation into GFP at amber codon, fluorescence time course; type: biochemical
Text: This example describes incorporation of compound (30) into green fluorescent protein. To monitor synthesis of GFP, the DNA encoding turboGFP containing an amber codon (stop codon) before the chromophore was cloned into OCFS expression vector pYD317. The stop codon (TAG) was inserted by overlapping PCR mutagenesis at the nucleotides corresponding to the amino acid tyrosine at the 50th amino acid according to the crystal structure of turboGFP (pdb 2G6X).
[…] OCFS reaction mix was immediately added to microplate for a 30 μL final reaction volume containing 30% S30 extract, 24 μg/mL T7 RNA polymerase, 1 mM L-tyrosine (Sigma, T8566), pre-mix*, 10 μM tRNA, 5 μM pCNFRS D286R, 1 mM compound (30), and 3 nM turboGFP plasmid (Evrogen, Russia, subcloned into a PYD317 vector) in DEPC-treated water (G Biosciences, 786-109). A positive control reaction using turboGFP without the stop codon was used to ensure that the reactions proceeded with rates similar previously observed, while reactions containing turboGFP Y50TAG were also run without tRNA to ensure no fluorescence was detected (negative control) in the absence of the system responsible for incorporation of pAMF. Incorporation of pAMF into GFP achieves relatively high yields of protein in a site-specific manner.

human GMCSF = assay: Cell-free incorporation into GM-CSF at amber codon, autoradiography; type: biochemical; conditions: 1 mM compound (30), TAG at serine position 6
Experimental: DNA encoding human GMCSF with amber codon was cloned into expression vector pYD317. The TAG codon was inserted by overlapping PCR mutagenesis at the nucleotides corresponding to the amino acid serine at the position 6.
(§1) Cell-free extracts containing tRNA CUA were thawed to room temperature and incubated with 50 μM iodoacetamide for 30 min. Cell-free reactions were run at 30 C for up to 10 h containing 30% (v/v) iodoacetamide-treated extract with 8 mM magnesium glutamate, 10 mM ammonium glutamate, 130 mM potassium glutamate, 35 mM sodium pyruvate, 1.2 mM AMP, 0.86 mM each of GMP, UMP, and CMP, 2 mM amino acids for all 18 amino acids except tyrosine and phenylalanine which were added at 0.5 mM, 4 mM sodium oxalate, 1 mM putrescine, 1.5 mM spermidine, 15 mM potassium phosphate, 100 nM T7 RNAP, 1.3 μM E. coli DsbC, 2 mM oxidized (GSSG) glutathione, 1 μM tRNA synthetase, and 1 mM compound (30). The concentrations of GMCSF TAG variant plasmid was 5 μg/mL. […]
(§2) For reducing gel, 4 μL of sample, 1 μL of 1 M DTT, 7 μL of DI H2O and 4 μL of 4×LDS buffer (Invitrogen, Carlsbad, CA) were mixed and heated in hot blot at 70 C for 5 minutes. Samples were analyzed by 4˜12% Bis-Tris SDS-PAGE gels (Invitrogen, Carlsbad, CA) according to the manufacturer's recommendations. Gels were dried and analyzed by autoradiography using a Storm 840 PhosphoImager after about 16 hours exposure.

trastuzumab heavy chain = assay: Cell-free incorporation into IgG at heavy chain amber codon, autoradiography; type: biochemical; conditions: 1 mM compound (30), TAG at serine position 136 (EU index)
Experimental: TAG codon was inserted by overlapping PCR mutagenesis at the nucleotides corresponding to the amino acid serine at the position 136 by EU index in CHI domain.
as §1, with “extracts” for “extracts containing tRNA CUA”, “DsbC, 5 μM yeast PDI,” for “DsbC,”, “glutathione, 15 μM tRNA,” for “glutathione,”, “heavy chain” for “GMCSF”, “and wild type light chain plasmid were 7.5 μg/mL and 2.5 μg/mL respectively.” for “was 5 μg/mL.”
as §2, with “For non” for “For”, “8” for “1 μL of 1 M DTT, 7”, “before being loaded on gel. […]” for “and heated in hot blot at 70 C for 5 minutes.”

[2] = Reactivity of amino acid analogs with DBCO-NH2 (61), absorption at 310 nm; type: physicochemical; conditions: 1:1 equivalence; for yield of reaction with compound (61): in six hours; for reaction rate with compound (61): pH 7.4 phosphate buffered saline, compared among analogs
Experimental: DBCO-NH2 (61) was dissolved in pH 7.4 phosphate buffered saline to yield a 500 µM solution. Amino acid analogs (30), (1), and (2) were dissolved in the same buffer to yield 5 mM clear solutions, and then diluted to a concentration of 500 μM using the same buffer. One hundred microliters of each amino acid analog was mixed with 100 μL of compound (61) and vortexed. The absorption of compound (61) was monitored at 310 nm using a NANODROP 1000 UV Spectrometer. Measurements were obtained at 0, 0.5, 2, 6, and 20 hours. The reduction in the absorption of compound (61) is indicative of its reaction with the amino acid analogs.

## [N-]=[N+]=Nc1ccc(C[C@H](N)C(=O)O)cc1 [compound (50), p-azido-phenylalanine, reference compound]
[1]
  second-order rate constant: 0.2 M⁻¹ s⁻¹

## [N-]=[N+]=NCCCC(=O)NCCCC[C@H](N)C(=O)O [compound (40)]
[1]
  second-order rate constant: 1.4 M⁻¹ s⁻¹
  rate constant fold higher than compound (50): approximately 7 fold

## [N-]=[N+]=NCc1ccc(C[C@H](N)C(=O)O)cc1 [compound (30)]
Y50TAG site in GFP; at 200 minutes
  RFU: approximately 130,000 RFU
Y50TAG site in GFP; at 400 minutes
  RFU: approximately 160,000 RFU
Y50TAG site in GFP; at 600 minutes
  RFU: approximately 170,000 RFU
Human GMCSF
  incorporation into GMCSF by autoradiography: intact full length GMCSF containing compound (30) was made
[1]
  second-order rate constant: 1.4 M⁻¹ s⁻¹
  rate constant fold higher than compound (50): approximately 7 fold
Trastuzumab heavy chain
  incorporation into IgG by autoradiography: intact full length IgG containing compound (30) was made
[2]
  yield of reaction with compound (61): almost quantitative yield
  reaction rate with compound (61): comparable rates

## [N-]=[N+]=NCc1ccc(CC(N)C(=O)O)nc1 (stereo not drawn) [compound (1), 2-Amino-3-(5-azidomethyl-pyridin-2-yl)-propionic Acid]
[2]
  yield of reaction with compound (61): almost quantitative yield
  reaction rate with compound (61): comparable rates

## [N-]=[N+]=NCc1ccc(C[C@H](N)C(=O)O)cn1 [compound (2)]
[2]
  reaction rate with compound (61): two- to four-fold slower
